We go through 9 compounds from patent US4701406A, “Assay for the detection of epigenetic toxic (non-genotoxic) substances” (priority 1984, dated 1987).

The test system of series [1] is cytoskeletal elements (microtubules and microfilaments) of Swiss 3T3 cells.
The test system of the next series is genetic material. The conditions noted are these: presently used assays; cited from earlier work.
The subject of a further series is skin. The settings on record: cited from earlier work.
Series [2] has as its system cytoskeletal elements (microtubules) of quiescent 3T3 cells.
For series [3] the following is noted: Table I; recognized by U.S. Department of Health and Human Services; cited from earlier work.
The next series concerns tubulin. The settings on record: in vitro; cited from earlier work.

Like-named read-outs stand apart in the source and are kept apart here.

In the case of `O=[As][O-].[Na+]` [As(III) as NaAsO2, NaAsO2], the “Cytoskeletal Perturbation” value in series [1] was “positive”.

For `O=[N+]([O-])c1ccc(Cl)c([N+](=O)[O-])c1` [CDNB, 1-Chloro-2,4-dinitro-benzene], the “identification by genotoxicity / mutagenicity assays” value with genetic material is given as “consistently failed to be identified”. In addition, the allergic contact dermatitis entry in the series with skin is recorded as “severe allergic contact dermatitis”. In series [1] (5.0 × 10^-6 M, 2.0 hrs, FIG. 1g), the “Cytoskeletal Perturbation” value is on record as “positive”. Further, the “Cytoskeletal Disruption” value in series [2] (5 × 10^-6 M, 2 hours, FIG. 2b) is recorded as “positive”.

On to `O=S(=O)([O-])[O-].[Cd+2]` [Cd(II) as CdSO4, CdSO4], for which the “Cytoskeletal Perturbation” value in series [1] (2.5 × 10^-5 M, 3.0 hrs, FIG. 1c) is “positive”.

`O=S(=O)([O-])[O-].[Co+2]` [Co(II) as CoSO4, CoSO4]: the “Health Hazardous Activity (carcinogen / promoter)” value in series [3] is recorded as “Carcinogen”. Besides, in series [1] (4.0 × 10^-4 M, 17.0 hrs, FIG. 1f), the “Cytoskeletal Perturbation” value is “positive”.

For `[K+].[K+].[O]=[Cr](=[O])([O-])[O][Cr](=[O])(=[O])[O-]` [Cr(VI) as K2 Cr2 O7, K2 Cr2 O7], the “Cytoskeletal Perturbation” value in series [1] was “positive”. Further, the “Cytoskeletal Disruption” value in series [2] (1.2 × 10^-3 M, 3 hours, FIG. 2c) was “positive”.

Take `O=[N+]([O-])c1ccc(F)c([N+](=O)[O-])c1` [FDNB, fluorodinitrobenzene]: the allergic contact dermatitis result in the series with skin is listed as “severe allergic contact dermatitis”.

Turning to `O=S(=O)([O-])[O-].[Ni+2]` [Ni(II) as NiSO4, NiSO4], the “Cytoskeletal Perturbation” value in series [1] is on record as “positive”. In addition, the “Cytoskeletal Disruption” value in series [2] (1.5 × 10^-3 M, 3 hours, FIG. 2d) is “positive”.

Turning to `Nc1ccc(N)cc1` [PPD, P--Phenylene-diamine], the “identification by genotoxicity / mutagenicity assays” value in the series on genetic material was “consistently failed to be identified”. For the same compound, the skin sensitization entry in the series on skin (human as well as animal studies) is reported as “potent skin sensitizers”. The “Health Hazardous Activity (potent skin sensitizer)” value with skin (identified by skin patch test) is “sensitizer”. The “Cytoskeletal Perturbation” value in series [1] (5.0 × 10^-4 M, 3.5 hrs, FIG. 1h) is listed as “positive”.

For the compound `CC(=O)O[C@H]1C(=O)[C@@]2(C)[C@H]([C@H](OC(=O)c3ccccc3)[C@]3(O)C[C@H](OC(=O)[C@H](O)[C@@H](NC(=O)c4ccccc4)c4ccccc4)C(C)=C1C3(C)C)[C@]1(OC(C)=O)CO[C@@H]1C[C@@H]2O` [taxol], in the series on tubulin, the tubulin polymerization result is on record as “promote tubulin polymerization in vitro”. Besides, the “effectiveness, taxol introduced prior to vs simultaneously with the epigenetic substances” value in series [2] (prior to or simultaneous treatment) was “no discernible difference in effectiveness”. Besides, the “Cytoskeletal Disruption” value in series [2] (taxol alone, 12 × 10^-6 M, 2 hours, FIG. 2h) is “negative”.
